Positions count from the first letter of the chain named. Values joined by “and” are separate entries in the source; they are usually repeats but may differ in a detail not shown here. Equal values may be shown once.
What was measured:
hTA1 T194A = biological target: T1, hTA1 T194A (Homo sapiens, UniProt Q96RJ0, T194A); assay: GloSensor cAMP accumulation assay, T194A mutant; conditions: for cAMP accumulation response, individual replicate values of the concentration-response curve: hTA1 T194A, log[Agonist], Supplementary Figure 5 source data
T1 sequence (Q96RJ0 1-339 T194A): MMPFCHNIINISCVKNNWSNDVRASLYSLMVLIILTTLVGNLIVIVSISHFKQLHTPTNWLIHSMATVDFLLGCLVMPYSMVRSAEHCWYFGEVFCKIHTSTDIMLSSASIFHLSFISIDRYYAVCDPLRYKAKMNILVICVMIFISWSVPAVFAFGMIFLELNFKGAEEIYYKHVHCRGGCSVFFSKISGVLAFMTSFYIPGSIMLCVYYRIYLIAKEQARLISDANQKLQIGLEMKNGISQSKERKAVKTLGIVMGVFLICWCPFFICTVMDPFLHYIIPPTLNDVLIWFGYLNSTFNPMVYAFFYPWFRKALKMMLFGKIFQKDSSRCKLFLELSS

hTA1 C96S = biological target: T2, hTA1 C96S (Homo sapiens, UniProt Q96RJ0, C96S); assay: GloSensor cAMP accumulation assay, C96S mutant; format: cell-based; conditions: log[Compound]
T2 construct: expressed in transfected cells; host or cells: HEK293T
T2 sequence (Q96RJ0 1-339 C96S): T1 sequence (Q96RJ0 1-339 T194A) with C96S, A194T

hTA1 I290Y = biological target: T3, hTA1 I290Y (Homo sapiens, UniProt Q96RJ0, I290Y); assay: GloSensor cAMP accumulation assay, I290Y mutant; format: cell-based; conditions: for cAMP accumulation response, normalized (concentration-response source data, single replicate values): hTA1 I290Y (N=3), log[Compound];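 on cAMP accumulation response, normalized (concentration-response source data, single replicate values): normalized to the maximum response of β-PEA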
T3 construct: expressed in transfected cells; host or cells: HEK293T
T3 sequence (Q96RJ0 1-339 I290Y): T1 sequence (Q96RJ0 1-339 T194A) with A194T, I290Y

hTA1 C88S = biological target: T4, hTA1 C88S (Homo sapiens, UniProt Q96RJ0, C88S); assay: GloSensor cAMP accumulation assay, C88S mutant; format: cell-based; conditions: C88S
T4 construct: expressed in transfected cells; host or cells: HEK293T
T4 sequence (Q96RJ0 1-339 C88S): T1 sequence (Q96RJ0 1-339 T194A) with C88S, A194T

hTA1 T271A = biological target: T5, hTA1 T271A (Homo sapiens, UniProt Q96RJ0, T271A); assay: GloSensor cAMP accumulation assay, T271A mutant; format: cell-based
T5 construct: expressed in transfected cells; host or cells: HEK293T
T5 sequence (Q96RJ0 1-339 T271A): T1 sequence (Q96RJ0 1-339 T194A) with A194T, T271A

NCCc1ccc(Oc2ccc(O)cc2)c(I)c1 [T1AM, 3-iodothyronamine]
pEC50 values, Mean (hTA1 T194A; T149A (so in the source), single experiments (3 replicates each)): 6.398 and 6.629 and 6.1942
Emax values, Mean (hTA1 T194A; T149A (so in the source), single experiments (3 replicates each), β-PEA = 100): 79.7491 and 146.858 and 73.3036
EC50 (hTA1 T194A; T194A): 235 nM
Span ± SEM (Emax normalized to β-PEA) (hTA1 T194A; T194A): 99.97
pEC50 ± SEM (hTA1 T194A; T194A): 6.41 ± 0.14
cAMP accumulation response, individual replicate values of the concentration-response curve (hTA1 T194A; M = -7.522): 6.402 and 2.253 and 5.81 and 6.799 and 11.9487 and 8.441
cAMP accumulation response, individual replicate values of the concentration-response curve (hTA1 T194A; M = -8): 0.08035 and -1.303 and -0.1172 and 2.714 and 2.536 and 3.069
cAMP accumulation response, individual replicate values of the concentration-response curve (hTA1 T194A; M = -8.522): -1.5 and -0.9074 and -0.5123 and 0.09457 and 0.1834 and 0.5385
cAMP accumulation response, individual replicate values of the concentration-response curve (hTA1 T194A; M = -9): -0.9074 and -1.303 (2×) and -1.015 and -1.326 and -0.3494
cAMP accumulation response, individual replicate values of the concentration-response curve (hTA1 T194A; M = -9.522): -2.093 (3×) and -0.6158 and -1.149 and -0.527
cAMP accumulation response, individual replicate values of the concentration-response curve (hTA1 T194A; M = -10): -1.698 and -1.303 and -1.105 and -0.749 (2×) and -0.4382
cAMP accumulation response, individual replicate values of the concentration-response curve (hTA1 T194A; M = -10.522): -1.5 and -1.303 and -1.698 and -0.8822 and -1.326 and -0.971
cAMP accumulation response, individual replicate values of the concentration-response curve (hTA1 T194A; M = -11): -1.303 and -0.9074 and -0.3148 and -0.4826 and -0.9266 and 0.5385
cAMP accumulation response, individual replicate values of the concentration-response curve (hTA1 T194A; M = -11.522): -1.303 (2×) and -0.9074 and -0.4382 and -0.7046 and -0.3938
cAMP accumulation response, individual replicate values of the concentration-response curve (hTA1 T194A; M = -12): -0.5123 and -1.105 and -1.5 and -0.4826 and -0.5714 and -0.6158
cAMP accumulation response, individual replicate values of the concentration-response curve (hTA1 T194A; M = -12.522): -0.3148 (2×) and -0.5123 and -0.5714 (2×) and -0.305
Normalized Luminescence Counts (hTA1 C96S; C96S, M = -5, single replicates (N=2)): -4.527 and 0.08646 and -0.5726 and 12.7948 and 5.048 and 3.112
Normalized Luminescence Counts (hTA1 C96S; C96S, M = -5.522, single replicates (N=2)): -1.232 and -3.209 (2×) and 24.4145 and 1.175 and -2.698
Normalized Luminescence Counts (hTA1 C96S; C96S, M = -6, single replicates (N=2)): -1.891 and -5.845 and -6.504 and 30.2243 and -2.698 and -0.7614
Normalized Luminescence Counts (hTA1 C96S; C96S, M = -6.522, single replicates (N=2)): -5.186 (2×) and -5.845 and -10.4444 and -0.7614 and -2.698
Normalized Luminescence Counts (hTA1 C96S; C96S, M = -7, single replicates (N=2)): -3.209 and -6.504 and -1.891 and -14.3176 and -8.508 and -10.4444
Normalized Luminescence Counts (hTA1 C96S; C96S, M = -7.522, single replicates (N=2)): -1.891 and -5.186 (2×) and -4.6346 and 3.112 and -6.571
Normalized Luminescence Counts (hTA1 C96S; C96S, M = -8, single replicates (N=2)): 0.08646 and -3.868 and -1.232 and 14.7315 and 18.6047 (2×)
Normalized Luminescence Counts (hTA1 C96S; C96S, M = -8.522, single replicates (N=2)): -1.891 and -1.232 (2×) and 14.7315 (2×) and 8.922
Normalized Luminescence Counts (hTA1 C96S; C96S, M = -9, single replicates (N=2)): -1.232 and -1.891 (2×) and 30.2243 and 37.9707 and 3.112
Normalized Luminescence Counts (hTA1 C96S; C96S, M = -9.522, single replicates (N=2)): -3.209 and -1.891 and -1.232 and 16.6681 and 5.048 and 20.5413
Normalized Luminescence Counts (hTA1 C96S; C96S, M = -10, single replicates (N=2)): 2.064 and -0.5726 and 0.7455 and -0.7614 and -4.6346 and -6.571
Normalized Luminescence Counts (hTA1 C96S; C96S, M = -10.522, single replicates (N=2)): -1.891 and -3.868 and 0.08646 and 1.175 and -6.571 and -4.6346
Normalized Luminescence Counts (hTA1 C96S; C96S, M = -11, single replicates (N=2)): 1.4045 and 0.7455 (2×) and 34.0975 (2×) and 14.7315
Normalized Luminescence Counts (hTA1 C96S; C96S, M = -11.522, single replicates (N=2)): 1.4045 (2×) and -0.5726 and 24.4145
Normalized Luminescence Counts (hTA1 C96S; M = -11.522, single replicates, mutant block above C178S): -0.4742 (2×) and -0.6563 and 0.6424 and -0.05214 and -0.3727
Normalized Luminescence Counts (hTA1 C96S; M = -12, single replicates, mutant block above C178S): -0.08731 (2×) and -0.5653 and 0.1081 and 0.001279 (2×)
Normalized Luminescence Counts (hTA1 C96S; M = -12.522, single replicates, mutant block above C178S): -0.2011 and 0.5045 and -0.6791 and -0.1056 and 0.9095 and -0.05214
Span ± SEM (Emax normalized to β-PEA) (hTA1 I290Y; I290Y): 68.94 ± 4.39
pEC50 ± SEM (hTA1 I290Y; I290Y): 6.05 ± 0.08
EC50 (hTA1 I290Y; I290Y, read-out: EC50): 889 nM
pEC50 values, Mean (hTA1 I290Y; I290Y, single experiments (3 replicates each)): 6.088 and 6.268 and 5.798
Emax values, Mean (hTA1 I290Y; I290Y, single experiments (3 replicates each), β-PEA = 100): 77.2061 and 62.2509 and 67.3555
cAMP accumulation response, normalized (concentration-response source data, single replicate values) (hTA1 I290Y; M = -5): 82.7627 and 66.4498 and 84.9173 and 54.2232 and 60.0862 and 58.254 and 61.3384 and 53.4426 and 63.5944
cAMP accumulation response, normalized (concentration-response source data, single replicate values) (hTA1 I290Y; M = -5.522): 50.7524 and 44.2888 and 57.216 and 57.1547 and 52.391 and 42.1307 and 35.395 and 42.1629 and 29.7552
cAMP accumulation response, normalized (concentration-response source data, single replicate values) (hTA1 I290Y; M = -6): 45.5199 and 34.7472 and 39.6719 and 40.665 and 36.2677 and 35.5349 and 24.1153 and 32.0111 and 19.6034
cAMP accumulation response, normalized (concentration-response source data, single replicate values) (hTA1 I290Y; M = -6.522): 32.5927 and 17.8187 and 23.9745 and 21.6102 and 23.076 and 24.1753 and 17.3474 and 11.7076 (2×)
cAMP accumulation response, normalized (concentration-response source data, single replicate values) (hTA1 I290Y; M = -7): 19.6655 and 9.201 and 18.4343 and 8.4185 and 1.456 and 10.9836 and 6.068 and 3.812 and 4.9397
cAMP accumulation response, normalized (concentration-response source data, single replicate values) (hTA1 I290Y; M = -7.522): 3.968 and -2.188 and 2.737 and 2.189 and -3.307 and -4.04 and -0.7002 and 0.4278 and -1.828
cAMP accumulation response, normalized (concentration-response source data, single replicate values) (hTA1 I290Y; M = -8): 2.429 and 0.2746 and -0.0332 and -1.842 and -5.873 and -3.674 and -2.956 and -4.0841 and -0.7002
cAMP accumulation response, normalized (concentration-response source data, single replicate values) (hTA1 I290Y; M = -8.522): 0.2746 and -3.111 and -0.341 and -6.605 (2×) and -5.873 and -4.0841 (2×) and -5.212
cAMP accumulation response, normalized (concentration-response source data, single replicate values) (hTA1 I290Y; M = -9): -1.88 and -2.803 and -1.572 and 0.7233 and -0.376 and -4.773 and -6.34 and -4.0841 (2×)
cAMP accumulation response, normalized (concentration-response source data, single replicate values) (hTA1 I290Y; M = -9.522): -1.88 and -3.7267 and -2.188 and -6.605 and -1.109 and -4.407 and -4.0841 (2×) and -6.34
cAMP accumulation response, normalized (concentration-response source data, single replicate values) (hTA1 I290Y; M = -10): -0.0332 and -2.496 and -1.572 and -6.605 and -6.972 and 4.021 and -2.956 (2×) and -6.34
cAMP accumulation response, normalized (concentration-response source data, single replicate values) (hTA1 I290Y; M = -10.522): -1.572
Emax values (hTA1 C88S; Mean of fit per experiment): 51.5909 and 77.2309
pEC50 values (hTA1 C88S; Mean of fit per experiment): 6.196 and 6.127
Span ± SEM (Emax normalized to β-PEA) (hTA1 C88S; n=2): 64.41
pEC50 ± SEM (hTA1 C88S; n=2): 6.16 ± 0.04
EC50 (hTA1 C88S; n=2, read-out: EC50): 690 nM
ΔpEC50 values (each mutant value - WT average), Mean (hTA1 T271A; T271A mutant minus WT average, Figure 5B): -0.6347 and -0.7159
pEC50 values, Mean (hTA1 T271A; T271A mutant, Figure 5B, each row one independent experiment (3 replicates)): 5.495 and 5.413
Emax values, Mean (hTA1 T271A; T271A mutant, Figure 5B, β-PEA = 100, each row one independent experiment (3 replicates)): 41.9229 and 94.6558
Span ± SEM (Emax normalized to β-PEA) (hTA1 T271A; T271A, n=2): 68.29
pEC50 ± SEM (hTA1 T271A; T271A, n=2): 5.45 ± 0.03
EC50 (hTA1 T271A; T271A, n=2, read-out: EC50): 3520 nM
